{
  "source": "patent EP2077851B1",
  "about": "“A PHARMACEUTICAL COMPOSITION COMPRISING CORDYCEPIN FOR THE TREATMENT AND PREVENTION OF OBESITY” (priority 2006, dated 2008)",
  "key": {"[1]": {"settings": "cited from earlier work"}, "[2]": {"test_system": "3T3-L1 cells", "experiment": "Differentiation of 3T3-L1 fibroblast cells into adipocytes (oil red O staining)", "assay_type": "cell-based", "description": "Fibroblast cells (3T3-L1 cells) were cultured in 10 cm-culture dishes containing animal cell culture media (refer to Table 2, below) at 37°C in a 5% CO2 incubator, with the media replaced with fresh media every two or three days.\n3T3-L1 cell line was purchased from the American Type Culture Collection (ATCC CL-173). The cells were grown and differentiated according to the protocol of Frost and Lane (Frost and Lane, 1985): 3T3-L1 preadipocytes were cultured in 100 mm plates containing a submerged medium for proliferation (DMEM supplemented with 10% BCS, 100 U/ml penicillin, and 100 µg/ml streptomycin) in an atmosphere of 5% CO2 at 37°C. When the cell become confluent, the cells were harvested, splitted in a 6-well plate to a cell number of 4.0×10^5 cells/ml and subsequently cultured until reaching confluence again. Two days after confluence, the cells were stimulated to differentiate into adipocytes by incubating for 2 days in the medium for stimulating differentiation (MSD, DMEM containing 1 µM DEX, 0.5 mM IBMX, and 10 µg/ml insulin), and maintained in the differentiated state in the medium for differentiation (MFD containing 10% BCS and 5 µg/ml insulin) for 7 days. MSD was freshly replaced every 48 hours and the comparison of the each medium composition used in this example was shown in Table 2.\nCordycepin was dissolved in the appropriate warm medium and added at the final concentration of 4, 16, and 32 µM.\nCells obtained in Example 1-1 were washed twice with PBS (pH 7.4), fixed with 10% formalin in PBS for 1 hour at room temperature and washed three times with distilled water. The cells were stained with filtered 0.5% oil red O for 10 min, and washed again with distilled water three times. The pictures of the stained cells were taken using an Olympus (CKX-41, Tokyo, Japan) microscope. The density of stained oil red O was measured using a spectrometer (DU-70, Beckman, Fullerton, CA) at 518 nm after the dye was extracted with propanol. […]"}, "[3]": {"test_system": "3T3-L1 cells", "experiment": "Triacylglycerol synthesis in 3T3-L1 cells (intracellular triacylglycerol per unit weight of protein)", "assay_type": "cell-based", "description": "A measurement was made to find the effect of cordycepin on the synthesis of triacylglycerol (TAG). First, the cells in each group were detached using a Tris-EDTA buffer and disrupted with an ultrasonicator. A calibration curve for a standard solution was made according to the protocol of a BCA protein assay kit. The cell lysates were diluted in the kit reagent and warmed at 37°C for 30 min. Then, within 10 min, the solutions were measured for absorbance at 562 nm to quantify protein. Separately, according to the protocol of a BCS triacylglycerol kit, the cell lysates were diluted in the kit reagent and warmed at 37°C for 10 min. Then, within 60 min, the absorbance of the solutions was measured at 550 nm against a reagent blank. The amount of intracellular triacylglycerol per unit weight of protein (µg/mg) was calculated according to a calculation formula.\nFor the preliminary investigation of the mode of action of cordycepin on differentiation and TAG synthesis, adenosine, one of several cordycepin homologues, was added to the submerged medium for differentiation at the time of initiating differentiation at the same molar concentration as cordycepin (32 µM)."}, "[4]": {"test_system": "C/EBPα", "experiment": "Western blot analysis of protein expression in 3T3-L1 cells", "assay_type": "cell-based", "settings": "FIG. 8", "description": "(§1) Western blot analysis was performed in order to examine the effect of cordycepin on the expression of C/EBPα, PPARγ, and anti-leptin, the essential factors involved in adipogenesis and lipogenesis.\n(§2) 3T3-L1 cells cultured in 6-well dishes were rinsed three times with ice-cold PBS, scraped into 0.5 ml of PBS, and centrifuged at 14,000 rpm for 1 min. Cell pellets were resuspended in 0.2 ml ice-cold RIPA buffer (50 mM Tris-HCl, pH 7.4, 150 mM NaCl, 1 mM EDTA, 1% NP 40, 0.25 % deoxycholate) and protease inhibitors (Complete Mini Protease Inhibitor Tablets, Roche, Indianapolis, IN). Suspensions were sheared through a 20-gauge needle, incubated on ice for 30 min and centrifuged at 14,000 rpm at 4°C for 20 min. Supernatants were collected and the protein concentration was determined using a BCA assay kit. Cell lysates were mixed with an equal volume of Laemmli SDS loading buffer (Bio-Rad Laboratories, Hercules, CA), equal amounts of lysate protein ([…]) were loaded onto SDS-PAGE, and electrophoresis was carried out before the protein was transferred to a nitrocellulose membrane (Bio-Rad Laboratories, Hercules, CA). The membranes were blocked for 1 h in PBS containing 0.05% Tween-20 (USB corp., Cleveland, USA) and 5% nonfat dry milk. The membranes were incubated with antibodies against C/EBPα, PPARγ (Santa Cruz, CA) and anti-leptin (Sigma) for 1 hour, followed by three 10 min washes in PBS/Tween-20. The blots were subsequently treated with appropriate secondary antibodies conjugated to horseradish peroxidase for 1 hour at room temperature, and washed with PBS-T three times for 10 min. To visualize reaction complexes, an enhanced chemiluminescence system (ECL, Amersham International plc, Little Chalfont Buckinghamshire, England) was used, and reaction complexes were exposed to X-ray film."}, "[5]": {"test_system": "PPARγ", "experiment": "Western blot analysis of protein expression in 3T3-L1 cells", "assay_type": "cell-based", "settings": "FIG. 8", "description": "as §1, §2"}, "[6]": {"test_system": "anti-leptin", "experiment": "Western blot analysis of protein expression in 3T3-L1 cells", "assay_type": "cell-based", "settings": "32 µM, differentiated 3T3-L1 cells, FIG. 8", "description": "as §1, §2"}, "[7]": {"settings": "anti-obesity drugs, background knowledge"}, "[8]": {"settings": "adenosine 32 µM, differentiated 3T3-L1 cells"}},
  "note": "Like-named read-outs stand apart in the source and are kept apart here.",
  "data": [
    {"compound": "CC(C)CC(N(C)C)C1(c2ccc(Cl)cc2)CCC1", "note": "(centres unmarked) [Sibutramine]", "values": [
      {"measurement": "Side effect", "setting": "[1]; [7]", "value": "Blood pressure increase, insomnia, xerostomia and vertigo. Prohibited to the patients with cardiovascular disease."}
    ]},
    {"compound": "Nc1ncnc2c1ncn2[C@@H]1O[C@H](CO)[C@@H](O)[C@H]1O", "note": "[adenosine]", "values": [
      {"measurement": "inhibitory effect of cordycepin on differentiation of 3T3-L1 cells", "setting": "[2]; adenosine 32 µM added together with cordycepin 32 µM at initiation of differentiation, FIG. 6", "value": "suppressed"},
      {"measurement": "inhibitory effect of cordycepin on TAG synthesis of 3T3-L1 cells", "setting": "[3]; adenosine 32 µM added together with cordycepin 32 µM at initiation of differentiation, FIG. 7", "value": "suppressed"},
      {"measurement": "C/EBPα level", "setting": "[4]; [8]", "value": "inhibited"},
      {"measurement": "expression levels of PPARγ", "setting": "[5]; [8]", "value": "no significant effect"},
      {"measurement": "expression levels of anti-leptin", "setting": "[6]", "value": "no significant effect"}
    ]},
    {"compound": "Thyroid hormone", "values": [
      {"measurement": "Side effect", "setting": "[1]; [7]", "value": "Hyperthyroidism caused"}
    ]},
    {"compound": "CCCCCCCCCCC[C@@H](C[C@@H]1OC(=O)[C@H]1CCCCCC)OC(=O)[C@H](CC(C)C)NC=O", "note": "[Orlistat]", "values": [
      {"measurement": "Side effect", "setting": "[1]; [7]", "value": "Diarrhea, fatty stool, fecal incontinence."}
    ]},
    {"compound": "CC(N)Cc1ccccc1", "note": "(centres unmarked) [Amphetamine]", "values": [
      {"measurement": "Side effect", "setting": "[1]; in vivo", "value": "Addictive"}
    ]},
    {"compound": "Nc1ncnc2c1ncn2[C@@H]1O[C@H](CO)C[C@H]1O", "note": "[cordycepin, 3'-deoxyadenosine]", "values": [
      {"measurement": "differentiation of 3T3-L1 cells into adipose cells", "setting": "[2]; cordycepin 4, 16 and 32 µM, oil red O, 518 nm, FIG. 4", "value": "inhibits the differentiation of 3T3-L1 cells into adipose cells in a dose-dependent manner"},
      {"measurement": "differentiation of 3T3-L1 cells into adipocytes", "setting": "[2]; in the presence of 32 µM of cordycepin, FIG. 4", "value": "almost completely suppressed"},
      {"measurement": "synthesis of triacylglycerol in 3T3-L1 cells", "setting": "[3]; cordycepin 4, 16 and 32 µM, FIG. 5", "value": "inhibits the synthesis of triacylglycerol in 3T3-L1 cells in a dose-dependent manner"},
      {"measurement": "expression levels of C/EBPα", "setting": "[4]; 32 µM, 3T3-L1 cells", "value": "inhibited"},
      {"measurement": "expression levels of PPARγ", "setting": "[5]; 32 µM, 3T3-L1 cells", "value": "inhibited"},
      {"measurement": "expression levels of anti-leptin", "setting": "[6]", "value": "inhibited"}
    ]},
    {"compound": "NC1=NCC(c2ccccc2)O1", "note": "(centres unmarked) [Aminorex]", "values": [
      {"measurement": "Side effect", "setting": "[1]; [7]", "value": "Pulmonary hypertension caused"}
    ]},
    {"compound": "CCNC(C)Cc1cccc(C(F)(F)F)c1", "note": "(centres unmarked) [Fenfluramine]", "values": [
      {"measurement": "Valvular dysfunction caused in persons administered in combination with other therapy", "setting": "[1]; share of persons, sale prohibited in 1997", "value": "Valvular dysfunction caused in 35% of persons administered in combination with other therapy, sale prohibited in 1997."}
    ]}
  ]
}
